Experiments:
Assay in all cases: Preservative effectiveness test, single challenge
Assay type in all cases: cell-based
E. coli = details: Prev(e)nar 13 formulation, 20 to 25° C.
Source text: (§1) To test for preservative effectiveness, aliquots of vaccine were inoculated with the following organisms:
(§2) Thirty milliliters (ml) of each vaccine formulation with and without Thimerosal or 2-PE at indicated concentrations or saline containing Thimerosal at 0.02% were inoculated in triplicates with a suspension of each test organism to achieve an inoculum density of approximately 10^5 to 10^6 CFU/ml at time 0 (CFU=colony forming units). […] Samples were mixed to ensure even distribution of challenged organisms. Another 30 ml of vaccine in triplicate (with and without preservative) were used as a negative control and spiked with the culture media alone to evaluate the inherent contamination that might be present in the sample or media. Each of the three series of vaccines, and positive and negative controls, was then separately incubated at 20 to 25° C. Aliquots (1 ml) of the challenged samples and controls (or their appropriate serial ten fold dilutions) were enumerated by plate count in duplicates at time 0 and at intervals of 6 hours, 24 hours, 7 days, 14 days and 28 days post-inoculation.
(§3) USP 29 NF 24 Supplement 2 (USP) requires that, after an inoculation of bacterial micro-organism(s), there is at least 1.0 log reduction from the initial calculated count (i.e., at time of inoculation) at 7 days, at least 3.0 log reduction at 14 days from the previous value measured and no increase at 28 days from the previous measured value. For yeast and fungi, the USP requirement is for there to be no increase from the time of inoculation to 7, 14 and 28 days.
(§4) EP requirements are more stringent. EP 5th Edition 5.6 (5.1.3) requirements for parenteral and ophthalmic preparations has two components: Category A and Category B. Category A (EP-A) requires, for bacteria, at least 2.0 log reduction from the initial calculated count at 6 hours after inoculation, at least 3.0 log reduction at 24 hours from the previous measured value, and no recovery at 28 days. Category B (EP-B) requires, for bacteria, at least 1.0 log reduction at 24 hours from the initial calculated count, at least 3.0 log reduction at 7 days from the previous value measured and not more than 0.5 log increase at 28 days from the previous value measured (i.e., no increase). For yeast and fungi, Category A requires at least 2.0 log reduction at 7 days and no increase from the previous value measured at 28 days, and Category B requires at least 1.0 log reduction at 14 days and no increase from the previous value measured at 28 days.
(§5) Plates containing <300 CFU for bacteria or <100 CFU for yeast or mold were used during enumeration. For single challenge studies, arithmetic average count of all surviving micro-organisms in triplicate and on duplicate plates (6 values per time point) plus their diluted samples were measured and normalized as CFU/ml. The results are expressed as mean log10 CFU/ml reduction (compared to time 0). In this case, the count of surviving micro-organisms is evaluated at time 0 as the baseline and compared to incubation time of 6 hours, 24 hours, 7 days, 14 days and 28 days.

[1] = tested on: Pseudomonas aeruginosa (ATCC #9027); details: Prev(e)nar 13 formulation, 20 to 25° C.
Source text: as §1, §2, §3, §4, §5

[2] = tested on: Aspergillus niger (ATCC #16404)
Source text: as §1, §2, §3, §4, §5

[3] = 5 mg/dose 2-PE in Prev(e)nar 13, single challenge
[4] = Prev(e)nar 13 formulation, single challenge, 20 to 25° C.

OCCOc1ccccc1 [2-PE, 2-phenoxyethanol]
EP (EP-B) vaccine safety requirements, E. coli (E. coli): Fails | USP vaccine safety requirements, E. coli (E. coli): Meets | EP (EP-B) vaccine safety requirements, P. aeruginosa [1]: Fails | USP vaccine safety requirements, P. aeruginosa [1]: Meets | effectiveness as a preservative against A. niger compared with Thimerosal [2, 3]: less effective | rate of decline of A. niger contamination compared to Thimerosal [2, 3]: slower | EP (EP-B) vaccine safety requirements, A. niger [2, 4]: Fails | USP vaccine safety requirements, A. niger [2, 4]: Meets

Reference: US9095567B2, “Vaccine formulations” (priority 2010, dated 2015)
